Results taken from patent US20100158808A1, “Altered Activity of Toll-Like Receptors” (priority 2003, published 2010).

Tests used:
TLR4/MD2 complex = molecular target: T1, TLR4/MD2 complex (Mus musculus, UniProt Q9JHF9+Q9QUK6); assay: Cell surface expression of TLR4/MD2 in HEK/TLR4(+) cells by flow cytometry; type: cell-based, murine
T1 construct: expressed in transfected cells; host or cells: HEK 293 clone HEK/TLR4(+)
T1 sequence (Q9QUK6 26-835): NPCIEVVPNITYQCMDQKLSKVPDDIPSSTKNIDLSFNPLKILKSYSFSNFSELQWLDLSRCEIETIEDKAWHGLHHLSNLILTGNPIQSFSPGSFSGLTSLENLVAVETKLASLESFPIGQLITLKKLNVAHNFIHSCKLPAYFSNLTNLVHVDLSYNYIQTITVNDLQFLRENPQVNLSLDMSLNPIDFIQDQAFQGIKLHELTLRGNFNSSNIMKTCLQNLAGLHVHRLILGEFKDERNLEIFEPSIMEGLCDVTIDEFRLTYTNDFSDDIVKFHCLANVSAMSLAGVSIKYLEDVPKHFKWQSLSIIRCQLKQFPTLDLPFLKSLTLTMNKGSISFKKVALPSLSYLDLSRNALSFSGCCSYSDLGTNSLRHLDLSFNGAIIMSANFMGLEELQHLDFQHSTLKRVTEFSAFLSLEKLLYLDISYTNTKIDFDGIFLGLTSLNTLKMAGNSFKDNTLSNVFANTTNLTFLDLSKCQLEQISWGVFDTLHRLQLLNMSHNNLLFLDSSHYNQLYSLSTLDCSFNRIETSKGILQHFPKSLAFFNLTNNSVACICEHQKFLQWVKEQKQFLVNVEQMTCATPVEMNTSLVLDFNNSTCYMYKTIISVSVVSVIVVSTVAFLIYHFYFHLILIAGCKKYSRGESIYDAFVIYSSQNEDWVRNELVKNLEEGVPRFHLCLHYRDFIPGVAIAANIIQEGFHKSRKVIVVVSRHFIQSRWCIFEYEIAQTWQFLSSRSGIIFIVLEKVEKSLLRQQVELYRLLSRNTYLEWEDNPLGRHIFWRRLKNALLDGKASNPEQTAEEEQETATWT
T1 sequence (Q9JHF9 19-160): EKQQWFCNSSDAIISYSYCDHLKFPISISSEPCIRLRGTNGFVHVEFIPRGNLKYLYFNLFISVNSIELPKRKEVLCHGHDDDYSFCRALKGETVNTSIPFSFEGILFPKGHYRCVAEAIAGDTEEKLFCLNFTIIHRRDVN
Protocol: FIG. 2A is a graph plotting the level of reporter activity in HEK/TLR4(+) cells transfected with NFκB- and control-luciferase reporter plasmids and then stimulated with intact HS or LPS, or with HS or LPS that had been treated with nitrous acid (HNO2) at pH 4.0 or pH 1.5. Controls were treated with PBS vehicle. […] FIG. 2C is a graph showing the effect of PBS, HS, depolymerized HS (nitrous acid, pH 1.5), and recombinant human IL-1α on cell surface expression of TLR4/MD2 in HEK/TLR4(+) cells. Expression of TLR4 on the cell surface was determined by flow cytometry using a monoclonal antibody specific to the TLR4/MD2 complex. Values are the mean of triplicate wells and are representative of three separate experiments.
To determine whether the effect of HS occurred through specific action on TLR4, surface expression of the TLR4/MD2 complex on cells treated with HS was examined. […] Thus, HEK/TLR4(+) cells responded to HS by activating NFκB and mobilizing receptor complexes.

TLR4 [1] = molecular target: T2, TLR4 (Mus musculus, UniProt Q9JHF9+Q9QUK6); assay: TNF-α secretion by dendritic cells (APC) cocultured with PAEC, ELISA; type: cell-based; settings: cocultures of PAEC and murine APCs, TLR4-positive or -negative
T2 sequence (Q9QUK6 26-835): T1 sequence (Q9QUK6 26-835)
T2 sequence (Q9JHF9 19-160): T1 sequence (Q9JHF9 19-160)
Protocol: Cell Isolation and Culture. Dendritic cells were generated from murine bone marrow cultures as previously described (Kodaira et al. (2000) J. Immunol. 165:1599). At day 6 or 7 of culture, nonadherent cells and loosely adherent proliferating dendritic cell aggregates were harvested for analysis or stimulation. PAEC were cultured to confluence and their identity was confirmed as previously described (Ryan and Maxwell (1986) J. Tissue Cult. Methods 10:3).
Cell Culture Stimulation. Dendritic cells (2×10^6 per ml) cocultured with confluent monolayers of PAEC in 96-well plates were stimulated with 10 μg/ml chondroitin sulfate, 500 ng/ml CpG DNA, 10 ng/ml LPS, 10 μg/ml HS, 50 μg/ml zymosan, or PBS, unless otherwise indicated. To control for purity, agonists were pretreated with END-X B15, or mixed with Limulus anti-LPS factor before stimulation of cells, as indicated. In some experiments, agonists were boiled before use for 60 minutes at 100° C.
Cytokine Quantification. Age-matched female mice were injected in the peritoneum with 0.5 U of elastase, 5 mg of HS, 200 U of heparin, 150 μg of CpG DNA, or PBS with a total volume of 250 μl. One hour and 3 hours after injection, 100-μl blood samples were collected from the tail vein. […] Concentrations of TNF-α were analyzed by enzyme-linked sandwich ELISA (R&D Systems, Minneapolis, Minn.). […]

TLR4 [2] = assay: Serum TNF-α after i.p. injection in mice, ELISA; type: in vivo
Protocol: Cytokine Quantification. Age-matched female mice were injected in the peritoneum with 0.5 U of elastase, 5 mg of HS, 200 U of heparin, 150 μg of CpG DNA, or PBS with a total volume of 250 μl. One hour and 3 hours after injection, 100-μl blood samples were collected from the tail vein. Cell supernatants and serum samples were immediately frozen at −20° C. until analysis. Concentrations of TNF-α were analyzed by enzyme-linked sandwich ELISA (R&D Systems, Minneapolis, Minn.).

[3] = Loss of HS from spleen tissue after intrasplenic injection (immunopathology); type: in vivo, mice; settings: within 5 hours of injection
Protocol: Immunopathology. After intraperitoneal (i.p.) injection of ketamine and xylazine, murine spleens were directly visualized through an incision in the lateral abdominal wall and injected with 100 μl of PBS containing 0.1 U of elastase or PBS alone. Five hours later, the spleen was harvested and pieces snap-frozen. Tissue sections were prepared and stained as previously described (Dempsey et al. supra) with the several modifications. In particular, secondary and tertiary antibodies were mouse serum (Jackson ImmunoResearch Laboratories, West Grove, Pa.) preabsorbed and diluted in M.O.M. diluent (Vector Laboratories, Burlingame, Calif.). Fluorescent images were converted to grayscale using SPOT software (Diagnostic Instruments, Sterling Heights, Mich.).
To determine whether elastase liberates HS in vivo, spleen tissues were harvested from mice that had been injected intrasplenically with the enzyme, and the tissues were tested for the presence of HS. […] Thus, pancreatic elastase can induce loss of HS proteoglycan from tissues in vivo.

[4] = TLR4-mutant mice, up to 3 hours
[5] = wild-type mice, 1 hour after treatment

| Substance | Decrease in surface expression of TLR4/MD2 (TLR4/MD2 complex) [%] | TNF-α secretion by APC (TLR4 [1]) | Serum TNF-α (TLR4 [2]; [4]) | Serum TNF-α (TLR4 [2]; [5]) | Loss of HS from blood vessels of spleen [3] | Change in surface expression of TLR4/MD2 (TLR4/MD2 complex) |
| --- | --- | --- | --- | --- | --- | --- |
| heparan sulfate [HS] | 60 | secreted TNF-α in a TLR4-dependent manner | not detectable | high serum levels of TNF-α |  |  |
| elastase: pancreatic elastase (Calbiochem; type IV porcine pancreatic elastase, Sigma-Aldrich), protease that cleaves ECM proteins |  | secreted TNF-α in a TLR4-dependent manner | not detectable | high serum levels of TNF-α | lost HS from blood vessels at the injection site |  |
| lipopolysaccharide [LPS] |  |  |  |  |  | a decrease similar to that induced by LPS |
